Some test systems named below: BT-549 breast; EKVX NSCLC; OVCAR-8 ovarian; COLO 205 colon; U251 CNS; MALME-3M melanoma; CCRF-CEM leukemia; K-562 leukemia; A549 NSCLC; PC-3 prostate; HS 578T breast.
Common to all, as to experiment: growth of human tumour cells (NCI), 48 h

Among the data in PubChem BioAssay (NCI) are TGI values, retold here.

Each structure is given as a SMILES string.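 Growth conditions: 96-well plates. Treatment: test compound, 48 hours, 5 concentrations. Analysis: linear interpolation between bracketing concentrations; unreached endpoints set to highest concentration. TGI denotes the concentration required for complete inhibition of growth.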

On to `CC(=O)C1=C(N=[N+]=[N-])c2cccc3cccc(c23)C1=O`, for which the TGI with BT-549 breast was determined as 46.2 µM; with EKVX NSCLC it was 46.3 µM; in the assay on OVCAR-8 ovarian it was 65.8 µM; in the assay with COLO 205 colon, 31.7 µM; with U251 CNS, 66 µM; with MALME-3M melanoma, 33.5 µM. The TGI with CCRF-CEM leukemia is 25.6 µM; in the assay on K-562 leukemia, 89.8 µM; with A549 NSCLC, above 100 µM; in the assay with PC-3 prostate it was 53.2 µM; in the assay with HS 578T breast, 80.6 µM.

On to `C1COC(NC(C2CC2)C2CC2)=N1`, for which the TGI in the assay on BT-549 breast, in the assay on EKVX NSCLC, with OVCAR-8 ovarian, in the assay on COLO 205 colon, in the assay with U251 CNS and with MALME-3M melanoma was above 100 µM each time. The TGI in the assay on CCRF-CEM leukemia, in the assay on K-562 leukemia, in the assay with A549 NSCLC, with PC-3 prostate and in the assay on HS 578T breast was above 100 µM each time.
